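Values below derive from 48-hour exposures of cells grown in 96-well plates, with endpoints linearly interpolated between the two concentrations bracketing the appropriate inhibition level. GI50 = concentration required for 50% inhibition of growth. The concentration for full growth arrest is given as TGI.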
Tests used:
Assay in all cases: NCI anticancer screen, dose series, 48 h
DLD-1 colon = tested on: DLD-1 colon
DMS 114 small cell lung = tested on: DMS 114 small cell lung
HOP-18 NSCLC = tested on: HOP-18 NSCLC
KM20L2 colon = tested on: KM20L2 colon
M19-MEL melanoma = tested on: M19-MEL melanoma
RXF-631 renal = tested on: RXF-631 renal
SNB-78 CNS = tested on: SNB-78 CNS
XF 498 CNS = tested on: XF 498 CNS
MDA-N = tested on: MDA-N

| Compound | TGI (DLD-1 colon) | TGI (DMS 114 small cell lung) | TGI (HOP-18 NSCLC) | TGI (KM20L2 colon) | TGI (M19-MEL melanoma) | TGI (RXF-631 renal) | TGI (SNB-78 CNS) | TGI (XF 498 CNS) | TGI (MDA-N) | other results |
| --- | --- | --- | --- | --- | --- | --- | --- | --- | --- | --- |
| CC1=CC[C@@H]2C(=O)C=CC=C[C@H]12.[C-]#[O+].[C-]#[O+].[C-]#[O+].[Fe] | > 100 µM | > 100 µM | > 100 µM | > 100 µM | > 100 µM |  |  |  |  | GI50 (DLD-1 colon): > 100 µM; GI50 (DMS 114 small cell lung): > 100 µM; GI50 (HOP-18 NSCLC): > 100 µM; GI50 (KM20L2 colon): > 100 µM; GI50 (M19-MEL melanoma): > 100 µM |
| CC(C)=CC1(C)/C(=N\O)C(C)(CC(C)C)C(=O)N1O (stereo not drawn) | > 100 µM | > 100 µM |  | > 100 µM | > 100 µM | > 100 µM | > 100 µM | > 100 µM |  |  |
| CCCCCC/C=C\CCCCCCCCCc1cccc(OC)c1O |  |  |  |  |  |  |  |  | > 100 µM |  |
| CC(C)CCCC(C)[C@H]1CCC2C3CC=C4C[C@@H](OC(=O)CC(CC(=O)[O-])C(=O)[O-])CC[C@]4(C)C3CC[C@@]21C.N.N.[Pt+4] (stereo partly drawn) |  |  | > 100 µM | > 100 µM |  |  | > 100 µM |  |  | GI50 (HOP-18 NSCLC): > 100 µM; GI50 (KM20L2 colon): > 100 µM; GI50 (SNB-78 CNS): > 100 µM |
| Cc1c(-c2cc(-c3ccccc3)n[nH]c2=O)c2ccccc2n1C | > 100 µM | > 100 µM | > 100 µM | > 100 µM | > 100 µM |  | > 100 µM | > 100 µM |  |  |
| COc1ccccc1C(=O)Nc1ccc(Cl)c(C(=O)OC(C)C)c1 |  | 63.8 µM | > 100 µM | > 100 µM | > 100 µM | > 100 µM | > 100 µM | 54.7 µM | > 100 µM |  |
| Cn1c(=S)c2[nH]c(SCc3cccnc3)nc2n(C)c1=O |  |  |  |  |  |  |  |  | > 100 µM |  |
| CCOC(=O)C1=C(Nc2cccc3ccccc23)OCC1=O | > 100 µM |  |  | > 100 µM |  | > 100 µM | > 100 µM | > 100 µM |  |  |
| NC(=S)N/N=C1/C(=O)N(c2ccccc2)C(=O)C1C(=O)Nc1ccccc1 (stereo not drawn) |  | > 100 µM | > 100 µM | > 100 µM | > 100 µM | > 100 µM | > 100 µM | > 100 µM |  |  |
| CC(C)(C)CC(C)(C)c1cc2c(O)c(c1)Cc1cc(C(C)(C)CC(C)(C)C)cc(c1O)Cc1cc(C(C)(C)CC(C)(C)C)cc(c1O)Cc1cc(C(C)(C)CC(C)(C)C)cc(c1O)Cc1cc(C(C)(C)CC(C)(C)C)cc(c1O)Cc1cc(C(C)(C)CC(C)(C)C)cc(c1O)Cc1cc(C(C)(C)CC(C)(C)C)cc(c1O)Cc1cc(C(C)(C)CC(C)(C)C)cc(c1O)C2 | > 100 µM |  |  | > 100 µM | > 100 µM |  | > 100 µM | > 100 µM |  |  |
| CC(NNC(=S)N1CCN(c2ccccn2)CC1)c1cccc[n+]1[O-] (stereo not drawn) |  |  |  |  |  |  |  |  | > 100 µM |  |
| CSc1ccc(NC(=O)CCl)cc1 |  |  |  |  |  |  |  |  | > 10 µM |  |
| CN(C)C(=S)/N=C(\N)N(C)C | > 100 µM | > 100 µM | > 100 µM | > 100 µM | > 100 µM | > 100 µM | > 100 µM | > 100 µM |  |  |
| Nc1ncnc2c1N=CN(Oc1ccccc1)N2 | > 100 µM | > 100 µM |  | > 100 µM | > 100 µM | > 100 µM | > 100 µM | > 100 µM |  |  |
| O=C(/C=C/c1ccco1)N1CCN(Cc2ccccc2)CC1 | > 100 µM | > 100 µM | > 100 µM | > 100 µM | > 100 µM | > 100 µM | > 100 µM | > 100 µM |  |  |
| C=CCC(O)c1cc(OC)ccc1OC (stereo not drawn) |  | > 100 µM |  |  | > 100 µM | > 100 µM |  | > 100 µM |  |  |
| CC/C(=N/O)C(C)C(=O)CCC(=O)Nc1ccc(Cl)cc1 (stereo not drawn) | > 100 µM | > 100 µM | > 100 µM | > 100 µM | > 100 µM |  | > 100 µM | > 100 µM |  |  |
| C=C(C)C1Cc2cc(C(C)=O)ccc2O1 (stereo not drawn) |  |  |  |  |  |  |  |  | > 100 µM |  |
| C#CCn1c2c(c3ccccc3c1=O)C(=O)c1ccccc1-2 |  |  |  |  |  |  |  |  | > 100 µM |  |

| Compound | TGI (DLD-1 colon) | TGI (DMS 114 small cell lung) | TGI (HOP-18 NSCLC) | TGI (KM20L2 colon) | TGI (M19-MEL melanoma) | TGI (RXF-631 renal) | TGI (SNB-78 CNS) | TGI (XF 498 CNS) | TGI (MDA-N) | other results |
| --- | --- | --- | --- | --- | --- | --- | --- | --- | --- | --- |
| CNC(=O)NCCCCC(NC(=O)OCc1ccccc1)C(=O)OCc1ccccc1 (stereo not drawn) | > 100 µM | 65.7 µM |  | > 100 µM | 48 µM | 46.1 µM | 70.8 µM | 33.2 µM |  |  |
| NC(CCSCCF)C(=O)O (stereo not drawn) |  | > 100 µM | > 100 µM | > 100 µM | > 100 µM |  | > 100 µM |  |  |  |
| CCOc1cc(CCNC)c2c(ccc3ccc(OC)c(O)c32)c1OC |  |  |  |  |  |  |  |  | 10.5 µM |  |
| Cc1cccc(/C=N/N=C(\N)NO)n1 | > 100 µM | > 100 µM |  |  | > 100 µM | > 100 µM | > 100 µM | > 100 µM |  |  |
| CC(C(=O)c1ccc(O)cc1)C1(O)C(=O)Nc2c(Cl)cc(Cl)cc21 (stereo not drawn) | > 100 µM | 24.2 µM |  | > 100 µM | 57.6 µM | > 100 µM | > 85.5 µM | 47.8 µM |  |  |
| COc1ccc2c3c1OC1C4(CCC5C(C2)N(CC2CC2)CCC351)OCCO4 (stereo not drawn) |  |  |  |  |  |  |  |  | > 100 µM |  |
| COC(=O)C1OC(SCCN)C(O)C(O)C1O (stereo not drawn) |  |  |  |  |  |  |  |  | > 100 µM |  |
| COC(=O)c1ccc(N/C=C(/C#N)c2ccsc2)cc1 | > 100 µM | 43.8 µM |  | 28.1 µM | > 100 µM |  | 43.4 µM |  |  |  |
| COC(=O)CCC(=O)Nc1cc(C)ccc1C | > 100 µM | > 100 µM | > 100 µM |  | > 100 µM | > 100 µM | > 100 µM | > 100 µM |  |  |
| C=CC(=O)OCCCS(=O)(=O)[O-].C=CC(=O)OCCCS(=O)(=O)[O-].NC1CCCCC1N.[Pt+4] | > 25 µM |  | > 25 µM | > 25 µM | > 25 µM |  | > 25 µM |  |  | GI50 (DLD-1 colon): > 25 µM; GI50 (HOP-18 NSCLC): > 25 µM; GI50 (KM20L2 colon): > 25 µM; GI50 (M19-MEL melanoma): > 25 µM; GI50 (SNB-78 CNS): > 25 µM |
| NC(=O)/C=C/c1c[nH]c2nccnc12 | 4.83 µM | 8.53 µM | 0.793 µM | 1.35 µM | 79 µM |  |  |  | > 75.2 µM |  |
| O=C(O)c1ccccc1C(=O)Nc1cc2c(cc1Br)-c1ccccc1C2=O |  |  |  |  |  |  |  |  | > 100 µM |  |
| CCCCCCCCCCCc1cc(=O)c2c(O)cccc2o1 | > 100 µM | > 100 µM | > 100 µM |  | > 100 µM | > 100 µM | > 100 µM | > 100 µM |  |  |
| N#CC1=C(N)Oc2c(ccc3cccnc23)C1c1ccccc1 (stereo not drawn) | > 100 µM | 7.98 µM | > 100 µM |  | > 100 µM |  | 9.36 µM | 77.7 µM |  |  |
| Cn1c(=O)c2[nH]c(CCS)nc2n(C)c1=O |  |  |  |  |  |  |  |  | > 100 µM |  |
| COc1ccccc1NC(=O)C1=C(C)NC(C)=C(C(=O)Nc2ccccc2OC)C1c1ccc(C2C(C(=O)Nc3ccccc3OC)=C(C)NC(C)=C2C(=O)Nc2ccccc2OC)cc1 | 2.66 µM | 21.6 µM | 31.9 µM | 3.39 µM | 11.5 µM | 13.7 µM | 23.3 µM | 5.64 µM |  |  |
| [N-]=[N+]=Nc1nnc(CCCCc2nnc(N=[N+]=[N-])o2)o1 | > 100 µM | > 100 µM | > 100 µM | > 100 µM | > 100 µM | 58.1 µM | > 100 µM | > 100 µM |  |  |
| COc1cc2ccnc(-c3n[nH]c4cc(OC)c(OC)cc34)c2cc1OC |  | > 100 µM | > 100 µM | > 100 µM | > 100 µM | 93.4 µM |  | > 100 µM |  |  |

— PubChem BioAssay (NCI)
